Structure (SMILES)	melting point
c1ccc(C(Oc2cc3cccnc3cn2)c2nnco2)cc1 (stereo not shown)	136 to 139 °C
c1ccc(C(Oc2ccc3nccnc3c2)c2nnco2)cc1 (stereo not shown)	155 to 157 °C
c1ccc(C(Oc2ccc3ncccc3c2)c2ncco2)cc1 (stereo not shown)	122 to 124 °C
Cc1nnc(C(Oc2ccc3ncccc3c2)c2ccccc2)o1 (stereo not shown)	114 to 116 °C
Fc1ccc(C(Oc2cc(/C=C/C(F)(F)F)c3ncccc3c2)c2nnco2)nc1 (stereo not shown)	147 to 150 °C
CC(C)O/N=C/c1cc(OC(c2ccc(F)cn2)c2nnco2)cc2cccnc12 (stereo not shown)	158 to 159 °C
Fc1ccc(C(Oc2ccc3ncccc3c2)c2nncs2)nc1 (stereo not shown)	92 to 94 °C
CO/N=C/c1cnc2ccc(O[C@@H](c3ccc(F)cn3)c3nnco3)cc2c1	136 to 137 °C
CCO/N=C/c1cc(OC(c2ccc(F)cn2)c2nnco2)cc2cccnc12 (stereo not shown)	182 to 184 °C
Cc1cnc2ccc(OC(c3ccc(Br)cn3)c3ncco3)cc2c1 (stereo not shown)	136 to 139 °C
CC(C)O/N=C/c1cnc2ccc(OC(c3ccc(F)cn3)c3nnco3)cc2c1 (stereo not shown)	112 to 115 °C
FC(F)Oc1ccc(C(Oc2ccc3ncccc3c2)c2nncs2)nc1 (stereo not shown)	60 to 62 °C
c1ccc(C(Oc2ccc3ncccc3c2)c2ccccn2)cc1 (stereo not shown)	71 to 73 °C
[O-][n+]1cccc2cc(OC(c3ccc(F)cn3)c3nnco3)ccc21 (stereo not shown)	176 to 177 °C
Cc1cnc2ccc(OC(c3ccc(C#N)cn3)c3ncco3)cc2c1 (stereo not shown)	168 to 172 °C
Fc1ccc(C(Oc2ccc3ncccc3c2)c2ncon2)nc1 (stereo not shown)	115 to 119 °C
c1ccc(C(Oc2ccc3ncccc3c2)c2ncon2)cc1 (stereo not shown)	138 to 140 °C
c1ccc(C(Oc2ccc3ncccc3c2)c2nncs2)cc1 (stereo not shown)	149 to 151 °C
c1ccc(C(Oc2ccc3ncccc3c2)c2cnco2)cc1 (stereo not shown)	110 to 113 °C
CO/N=C/c1ccnc(C(Oc2cc(Cl)c3ncccc3c2)c2nnco2)c1 (stereo not shown)	166 to 168 °C
Fc1ccc(C(Oc2cc(Br)c3ncccc3c2)c2nnco2)nc1 (stereo not shown)	176 to 182 °C
CC(C)O/N=C/c1ccnc(C(Oc2cc(F)c3ncccc3c2)c2nnco2)c1 (stereo not shown)	126 to 129 °C
CO/N=C/c1ccnc(C(Oc2cc(Br)c3ncccc3c2)c2nnco2)c1 (stereo not shown)	165 to 167 °C
CO/N=C/c1cnc2ccc(OC(c3ccc(F)cn3)c3nnco3)cc2c1 (stereo not shown)	148 to 152 °C
Fc1ccc(C(Oc2cnc3ncccc3c2)c2nnco2)nc1 (stereo not shown)	154 to 158 °C
Fc1ccc(C(Oc2cccc3ncccc23)c2nnco2)nc1 (stereo not shown)	198 to 200 °C

Structure (SMILES)	melting point
Cn1nnnc1C(Oc1ccc2ncccc2c1)c1ccccc1 (stereo not shown)	111 to 113 °C
Fc1ccc(C(Oc2ccc3ncccc3c2)c2ncno2)nc1 (stereo not shown)	100 to 104 °C
Cc1noc(C(Oc2ccc3ncccc3c2)c2ccc(F)cn2)n1 (stereo not shown)	79 to 81 °C
Brc1cnc2ccc(OC(c3ccccc3)c3ncco3)cc2c1 (stereo not shown)	136 to 137 °C
CCO/N=C/c1cnc2ccc(OC(c3ccc(F)cn3)c3nnco3)cc2c1 (stereo not shown)	130 to 133 °C
CSc1cnc2ccc(OC(c3cc(Cl)c(Cl)cn3)c3nnco3)cc2c1 (stereo not shown)	179 to 181 °C
CCO/N=C/c1ccnc(C(Oc2cc(F)c3ncccc3c2)c2nnco2)c1 (stereo not shown)	168 to 171 °C
c1ccc(C(Oc2ccc3ncccc3c2)c2ccco2)cc1 (stereo not shown)	215 °C (dec.)
C#CCO/N=C/c1ccnc(C(Oc2cc(F)c3ncccc3c2)c2nnco2)c1 (stereo not shown)	128 to 130 °C
c1ccc(C(Sc2ccc3ncccc3c2)c2nnco2)cc1 (stereo not shown)	126 to 130 °C
c1ccc(C(Oc2ccc3ncccc3c2)c2ccon2)cc1 (stereo not shown)	126 to 128 °C
Fc1ccc(C(Oc2ccc3ncccc3c2)c2ncco2)nc1 (stereo not shown)	104 to 110 °C
Clc1ccc(C(Nc2ccc3ncccc3c2)c2nnco2)cc1 (stereo not shown)	151 to 152 °C
c1ccc(C(Oc2cnc3ccccc3c2)c2nnco2)cc1 (stereo not shown)	108 to 110 °C
CO/N=C/c1cc(OC(c2ccc(F)cn2)c2nnco2)cc2cccnc12 (stereo not shown)	164 to 166 °C
CCOC(=O)c1coc(C(Oc2ccc3ncccc3c2)c2ccccc2)n1 (stereo not shown)	103 to 107 °C
CC(C)(O)c1coc(C(Oc2ccc3ncccc3c2)c2ccccc2)n1 (stereo not shown)	130 to 134 °C
Cc1cc(C(Oc2ccc3ncccc3c2)c2ccccc2)no1 (stereo not shown)	108 to 110 °C
Brc1c(OC(c2ccccc2)c2ncon2)ccc2ncccc12 (stereo not shown)	53 to 55 °C
Clc1ccc(C(Nc2ccc3ncc(Br)cc3c2)c2nnco2)nc1 (stereo not shown)	214 to 217 °C
CO/N=C/c1ccnc(C(Oc2cc(F)c3ncccc3c2)c2nnco2)c1 (stereo not shown)	174 to 177 °C
CO/N=C/c1cnc2ccc(OC(c3ccc(F)cn3)c3nnco3)c(Br)c2c1 (stereo not shown)	172 to 173 °C
c1ccc(C(Nc2ccc3ncccc3c2)c2nnco2)cc1 (stereo not shown)	161 to 163 °C
CO/N=C/c1cnc2ccc(O[C@H](c3ccc(F)cn3)c3nnco3)cc2c1	136 to 138 °C
Fc1ccc(C(Oc2ccc3ncc(/C=N/OCC(F)(F)F)cc3c2)c2nnco2)nc1 (stereo not shown)	118 to 120 °C
[O-][n+]1cc(F)ccc1C(Oc1ccc2c(ccc[n+]2[O-])c1)c1nnco1 (stereo not shown)	224 to 226 °C

Reference: US20200275661A1 (published 2020)
